pIC50: −log10 of the molar value. Each block holds one molecule with its values, some of them ahead of it.
Tests used:
[1] = molecular target: Mitogen-activated protein kinase 14 (Rattus norvegicus, UniProt P70618); experiment: Inhibitory potency evaluated against rat p38 kinase
Rattus norvegicus [2] = species: Rattus norvegicus; experiment: Inhibition of secondary paw swelling in rat adjuvant arthritis model; type: functional
[3] = C max was determined at 10 mg/kg po dose in rats; type: ADME, organism-based; set-up: dose 10 mg/kg, route oral; conditions: rat, in vivo
[4] = Pharmacokinetic parameter area under curve was determined at 10 mg/kg po dose in rats; type: ADME, organism-based; set-up: dose 10 mg/kg, route oral; conditions: rat, in vivo
[5] = Bioavailability was determined at 3 mg/kg po dose in rats; type: ADME, organism-based; conditions: rat, in vivo
Rattus norvegicus [6] = experiment: Inhibition of secondary paw swelling in rat adjuvant arthritis model at 20 mg/kg/ b.i.d.; type: functional; conditions: intraduodenal
[7] = Pharmacokinetic parameter half-life was determined at 10 mg/kg po dose in rats; type: ADME, organism-based; set-up: dose 10 mg/kg, route oral; conditions: rat, in vivo
[8] = Pharmacokinetic parameter area under curve was determined at 3 mg/kg po dose in rats; type: ADME, organism-based; set-up: dose 3 mg/kg, route oral; conditions: rat, in vivo
[9] = molecular target: T1, RAF proto-oncogene serine/threonine-protein kinase (Homo sapiens, UniProt P04049); experiment: Inhibition of RAF kinase
T1 sequence (P04049 whole entry): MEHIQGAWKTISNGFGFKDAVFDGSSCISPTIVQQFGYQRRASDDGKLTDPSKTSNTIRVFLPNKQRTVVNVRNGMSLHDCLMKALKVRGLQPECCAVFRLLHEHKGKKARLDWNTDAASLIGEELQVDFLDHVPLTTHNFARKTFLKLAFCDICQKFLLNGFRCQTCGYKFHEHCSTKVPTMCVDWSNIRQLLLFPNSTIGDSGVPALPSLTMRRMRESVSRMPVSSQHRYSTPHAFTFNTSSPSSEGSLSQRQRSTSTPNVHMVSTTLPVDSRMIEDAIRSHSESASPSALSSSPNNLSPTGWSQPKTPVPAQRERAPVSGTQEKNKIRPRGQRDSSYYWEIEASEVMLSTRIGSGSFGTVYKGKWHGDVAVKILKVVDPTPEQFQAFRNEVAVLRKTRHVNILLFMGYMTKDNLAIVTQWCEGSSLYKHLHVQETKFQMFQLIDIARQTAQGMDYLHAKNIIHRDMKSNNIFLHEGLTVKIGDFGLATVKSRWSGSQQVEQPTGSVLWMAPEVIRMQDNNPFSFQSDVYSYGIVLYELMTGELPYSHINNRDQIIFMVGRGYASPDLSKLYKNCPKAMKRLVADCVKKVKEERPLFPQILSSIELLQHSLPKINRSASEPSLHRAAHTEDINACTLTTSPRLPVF

[10] = T max was determined at 10 mg/kg po dose in rats; type: ADME, organism-based; set-up: dose 10 mg/kg, route oral; conditions: rat, in vivo
[11] = T max was determined at 3 mg/kg po dose in rats; type: ADME, organism-based; set-up: dose 3 mg/kg, route oral; conditions: rat, in vivo
[12] = molecular target: T2, Mitogen-activated protein kinase 12 (Homo sapiens) (UniProt P53778); conditions: 50 uM
T2 sequence (whole entry): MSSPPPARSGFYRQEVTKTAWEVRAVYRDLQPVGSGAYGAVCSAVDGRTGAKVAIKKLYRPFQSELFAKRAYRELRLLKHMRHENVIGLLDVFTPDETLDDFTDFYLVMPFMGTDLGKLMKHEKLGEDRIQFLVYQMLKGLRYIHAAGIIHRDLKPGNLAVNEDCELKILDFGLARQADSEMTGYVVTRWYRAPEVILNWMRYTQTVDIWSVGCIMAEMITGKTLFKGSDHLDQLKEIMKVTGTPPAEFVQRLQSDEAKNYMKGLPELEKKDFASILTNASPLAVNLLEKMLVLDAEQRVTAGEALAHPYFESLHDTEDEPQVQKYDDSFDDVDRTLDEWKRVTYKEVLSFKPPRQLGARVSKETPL
Description: Inhibition of Mitogen-activated protein kinase p38 gamma at 50 uM

[13] = Pharmacokinetic parameter half-life was determined at 2 mg/kg i.v. dose in rats; type: ADME, organism-based; set-up: dose 2 mg/kg, route intravenous; conditions: rat, in vivo, iv
[14] = C max was determined at 3 mg/kg po dose in rats; type: ADME, organism-based; set-up: dose 3 mg/kg, route oral; conditions: rat, in vivo
[15] = Pharmacokinetic parameter half-life was determined at 3 mg/kg po dose in rats; type: ADME, organism-based; set-up: dose 3 mg/kg, route oral; conditions: rat, in vivo
[16] = molecular target: T3, Mitogen-activated protein kinase 9 (Homo sapiens, UniProt P45984); experiment: Inhibition of c-Jun N-terminal kinase 2-alpha 2
T3 sequence (P45984 whole entry): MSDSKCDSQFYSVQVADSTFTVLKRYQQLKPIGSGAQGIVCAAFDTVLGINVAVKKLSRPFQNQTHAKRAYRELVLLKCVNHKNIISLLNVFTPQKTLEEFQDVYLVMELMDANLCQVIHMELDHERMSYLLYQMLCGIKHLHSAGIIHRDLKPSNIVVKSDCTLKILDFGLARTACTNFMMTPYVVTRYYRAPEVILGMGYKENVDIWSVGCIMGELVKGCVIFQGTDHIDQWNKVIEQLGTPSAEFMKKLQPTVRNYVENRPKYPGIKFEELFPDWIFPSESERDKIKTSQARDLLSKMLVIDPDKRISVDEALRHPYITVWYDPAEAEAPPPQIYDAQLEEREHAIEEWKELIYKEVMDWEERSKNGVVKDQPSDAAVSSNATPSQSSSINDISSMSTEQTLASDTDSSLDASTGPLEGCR

[17] = Pharmacokinetic parameter half-life was determined at 5 mg/kg i.v. dose in rats; type: ADME, organism-based; set-up: dose 5 mg/kg, route intravenous; conditions: rat, in vivo, iv
[18] = molecular target: Mitogen-activated protein kinase 11 (Homo sapiens, UniProt Q15759); experiment: Inhibition of Mitogen-activated protein kinase p38 beta
Mitogen-activated protein kinase 11, sequence (Q15759 whole entry): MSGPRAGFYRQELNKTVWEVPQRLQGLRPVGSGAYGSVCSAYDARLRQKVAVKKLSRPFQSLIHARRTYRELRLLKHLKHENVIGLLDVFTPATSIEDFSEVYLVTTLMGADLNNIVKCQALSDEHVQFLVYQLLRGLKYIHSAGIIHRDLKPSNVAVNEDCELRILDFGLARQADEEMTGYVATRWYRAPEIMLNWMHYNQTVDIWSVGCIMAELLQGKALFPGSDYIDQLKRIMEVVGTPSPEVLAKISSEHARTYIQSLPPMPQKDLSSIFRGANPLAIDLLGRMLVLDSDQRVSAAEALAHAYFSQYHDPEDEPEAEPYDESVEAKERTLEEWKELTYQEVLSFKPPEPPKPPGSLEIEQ

[19] = Pharmacokinetic parameter area under curve was determined at 5 mg/kg i.v. dose in rats; type: ADME, organism-based; set-up: dose 5 mg/kg, route intravenous; conditions: rat, in vivo, iv
[20] = Pharmacokinetic parameter area under curve was determined at 2 mg/kg i.v. dose in rats; type: ADME, organism-based; set-up: dose 2 mg/kg, route intravenous; conditions: rat, in vivo, iv
[21] = molecular target: T3, Mitogen-activated protein kinase 9; experiment: Inhibition of c-Jun N-terminal kinase 2-beta 1
Rattus norvegicus [22] = experiment: Pharmacokinetic parameter plasma clearance was determined at 2 mg/kg i.v. dose in rats; type: ADME, organism-based; set-up: dose 2 mg/kg, route intravenous; conditions: in vivo, iv
[23] = Pharmacokinetic parameter Vdss was determined at 2 mg/kg i.v. dose in rats; type: ADME, organism-based; set-up: dose 2 mg/kg, route intravenous; conditions: rat, in vivo, iv, read-out: Vdss
Rattus norvegicus [24] = experiment: Pharmacokinetic parameter plasma clearance was determined at 5 mg/kg i.v. dose in rats; type: ADME, organism-based; set-up: dose 5 mg/kg, route intravenous; conditions: in vivo, iv
[25] = molecular target: T4, Mitogen-activated protein kinase 8 (Homo sapiens, UniProt P45983); experiment: Inhibition of c-Jun N-terminal kinase 1-alpha 1
T4 sequence (P45983 whole entry): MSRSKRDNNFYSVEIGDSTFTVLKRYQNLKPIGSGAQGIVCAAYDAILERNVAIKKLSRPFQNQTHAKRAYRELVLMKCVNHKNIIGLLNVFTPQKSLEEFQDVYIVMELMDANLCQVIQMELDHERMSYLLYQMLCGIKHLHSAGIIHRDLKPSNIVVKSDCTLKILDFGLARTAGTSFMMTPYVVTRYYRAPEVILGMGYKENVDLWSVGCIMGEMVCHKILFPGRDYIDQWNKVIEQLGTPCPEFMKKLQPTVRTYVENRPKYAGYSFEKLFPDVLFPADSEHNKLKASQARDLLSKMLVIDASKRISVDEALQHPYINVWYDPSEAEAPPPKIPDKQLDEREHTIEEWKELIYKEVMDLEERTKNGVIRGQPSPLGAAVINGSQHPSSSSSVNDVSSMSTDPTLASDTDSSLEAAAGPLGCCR

[26] = Pharmacokinetic parameter Vdss was determined at 5 mg/kg i.v. dose in rats; type: ADME, organism-based; set-up: dose 5 mg/kg, route intravenous; conditions: rat, in vivo, iv, read-out: Vdss
[27] = molecular target: Mitogen-activated protein kinase 14 (Homo sapiens, UniProt Q16539); experiment: Inhibition of Mitogen-activated protein kinase p38 alpha
Mitogen-activated protein kinase 14 (Homo sapiens, UniProt Q16539), sequence (Q16539 whole entry): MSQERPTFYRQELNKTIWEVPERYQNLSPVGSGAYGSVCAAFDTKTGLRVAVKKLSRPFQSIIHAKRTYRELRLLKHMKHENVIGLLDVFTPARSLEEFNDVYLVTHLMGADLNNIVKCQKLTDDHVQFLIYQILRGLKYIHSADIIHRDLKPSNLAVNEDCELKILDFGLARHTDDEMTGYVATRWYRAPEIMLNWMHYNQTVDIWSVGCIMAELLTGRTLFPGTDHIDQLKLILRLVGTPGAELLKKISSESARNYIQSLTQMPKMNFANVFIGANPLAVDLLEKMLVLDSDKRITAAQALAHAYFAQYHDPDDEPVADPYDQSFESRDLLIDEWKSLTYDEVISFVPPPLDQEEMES

[28] = molecular target: T2, Mitogen-activated protein kinase 12 (Homo sapiens); experiment: Inhibition of Mitogen-activated protein kinase p38 gamma at 25 uM
[29] = molecular target: T1, RAF proto-oncogene serine/threonine-protein kinase; experiment: Inhibition of RAF kinase at 1 uM
[30] = molecular target: T4, Mitogen-activated protein kinase 8; experiment: Inhibition of c-Jun N-terminal kinase 1-alpha 1 at 20 uM

Mitogen-activated protein kinase 14 (Rattus norvegicus, UniProt P70618), sequence (P70618 whole entry): as the sequence (Q16539 whole entry) above, with I17V, L48H, T263A, D321E, L332F counted along it

pIC50 [1]: 7.00
SMILES: Fc1ccc(-c2[nH]c(-c3ccc(Br)cc3)cc2-c2ccncc2)cc1

pIC50 [1]: 6.35
SMILES: N#Cc1ccc(-c2[nH]c(-c3ccccc3)cc2-c2ccncc2)cc1

pIC50 [1]: 7.54
SMILES: Fc1ccc(-c2[nH]c(-c3ccccc3)cc2-c2ccncc2)c(F)c1

SMILES: C[S+]([O-])c1ccc(-c2cc(-c3ccncc3)c(-c3ccc(F)cc3)[nH]2)cc1 (configuration not stated)
ID50 (Rattus norvegicus [2]): 7.4 mg kg-1 b.i.d. | Cmax [3]: 5.71 µM | AUC [4]: 16.7 µM·h | pIC50 [1]: 8.29 | bioavailability [5]: 25.6% | inhibition in vivo at 20 mg/kg (Rattus norvegicus [6]): 90% | half-life [7]: 2.59 h | AUC [8]: 0.81 µM·h | pIC50 [9]: 6.33 | Tmax [10]: 1.05 h | Tmax [11]: 1 h | inhibition [12]: 42% | half-life [13]: 0.652 h | Cmax [14]: 0.31 µM | half-life [15]: 2.04 h | pIC50 [16]: 5.12 | half-life [17]: 1.06 h | pIC50 [18]: 8.09 | AUC [19]: 10 µM·h | AUC [20]: 2.1 µM·h | pIC50 [21]: 5.82 | Clp (Rattus norvegicus [22]): 42.6 mL/min/kg | Vd [23]: 2.23 L/kg | Clp (Rattus norvegicus [24]): 22.5 mL/min/kg | pIC50 [25]: 4.80 | Vd [26]: 1.81 L/kg | pIC50 [27]: 8.30

pIC50 [1]: 8.36
SMILES: Fc1ccc(-c2[nH]c(-c3ccccc3)cc2-c2ccncc2)cc1F

pIC50 [1]: 6.70
SMILES: Fc1ccc(-c2[nH]c(-c3ccc(Cl)cc3)cc2-c2ccncc2)cc1

pIC50 [1]: 7.55
SMILES: Nc1ccc(-c2cc(-c3ccncc3)c(-c3ccccc3)[nH]2)cc1

pIC50 [1]: 7.22
SMILES: Fc1ccc(-c2cc(-c3ccncc3)c(-c3ccc(F)cc3)[nH]2)cc1

pIC50 [1]: 7.01
SMILES: O=C(NCCN1CCCCC1)c1ccc(-c2cc(-c3ccncc3)c(-c3ccccc3)[nH]2)cc1

pIC50 [1]: 6.55
SMILES: COc1ccc(-c2cc(-c3ccncc3)c(-c3ccccc3)[nH]2)cc1

pIC50 [1]: < 5.00
SMILES: Fc1ccc(-c2[nH]c(-c3ccc(Cl)cc3)cc2-c2ccccn2)cc1

pIC50 [1]: 7.28
SMILES: O=[N+]([O-])c1cccc(-c2cc(-c3ccncc3)c(-c3ccccc3)[nH]2)c1

pIC50 [1]: 6.18
SMILES: c1ccc(-c2cc(-c3ccncc3)c(-c3ccoc3)[nH]2)cc1

pIC50 [1]: 6.94
SMILES: C[S+]([O-])c1ccc(-c2cc(-c3ccnc4ccccc34)c(-c3ccc(F)cc3)[nH]2)cc1 (configuration not stated)

pIC50 [1]: 7.47
SMILES: Fc1ccccc1-c1cc(-c2ccncc2)c(-c2ccccc2)[nH]1

pIC50 [1]: 7.38
SMILES: Fc1cccc(-c2cc(-c3ccncc3)c(-c3ccccc3)[nH]2)c1

pIC50 [1]: 7.22
SMILES: COc1ccc(-c2cc(-c3ccncc3)c(-c3ccc(F)cc3)[nH]2)cc1

SMILES: CS(=O)(=O)c1ccc(-c2cc(-c3ccncc3)c(-c3ccc(F)cc3)[nH]2)cc1
ED50 (Rattus norvegicus [2]; Rattus norvegicus, read-out: ID50 (the source's name)): 7.4 mg/kg/day | AUC [4]: 95.7 µM·h | pIC50 [1]: 8.01 | inhibition [28]: 37% | AUC [8]: 5.8 µM·h | pIC50 [9]: 6.30 | inhibition [29]: 50% | pIC50 [16]: 5.16 | pIC50 [18]: 8.00 | AUC [19]: 32.6 µM·h | AUC [20]: 6.18 µM·h | pIC50 [21]: 5.97 | inhibition [30]: 50% | pIC50 [27]: 8.05

SMILES: COc1ccc2c(c1)c(CC(=O)O)c(C)n2C(=O)c1ccc(Cl)cc1 [INDOMETHACIN]
ID50 (Rattus norvegicus [2]): 1 mg kg-1 b.i.d.

pIC50 [1]: 7.28
SMILES: N#Cc1cccc(-c2[nH]c(-c3ccccc3)cc2-c2ccncc2)c1

pIC50 [1]: 7.77
SMILES: c1ccc(-c2cc(-c3ccncc3)c(-c3ccccc3)[nH]2)cc1

pIC50 [1]: 6.92
SMILES: c1ccc(-c2cc(-c3ccncc3)c(-c3cccs3)[nH]2)cc1

pIC50 [1]: 7.46
SMILES: O=c1c(-c2ccc(F)cc2)c(-c2ccncc2)[nH]n1-c1ccc(Cl)cc1

pIC50 [1]: 6.04
SMILES: FC(F)(F)c1ccc(-c2[nH]c(-c3ccccc3)cc2-c2ccncc2)cc1

pIC50 [1]: 7.08
SMILES: C[S+]([O-])c1ccc(-n2nc(-c3ccncc3)c(-c3ccc(F)cc3)c2O)cc1 (configuration not stated)

pIC50 [1]: 6.15
SMILES: Fc1ccc(-c2[nH]c(-c3ccccc3)cc2-c2ccncn2)cc1

pIC50 [1]: 7.85
SMILES: O=C(O)c1ccc(-c2cc(-c3ccncc3)c(-c3ccccc3)[nH]2)cc1

pIC50 [1]: 5.91
SMILES: c1ccc(-c2cc(-c3ccncc3)c(-c3ccncc3)[nH]2)cc1

Source: ChEMBL document CHEMBL1130598, “Pyrroles and other heterocycles as inhibitors of p38 kinase” (Bioorg Med Chem Lett, 1998)
